assay: recombinant barcode read abundance after kanamycin selection (control-corrected) (log10(CPM+1)); higher = more efficient recombination; sequences stand for … in AGTGCAGAGAAAATCGGCCAGTTTTCTCTGCCTGCAGTCCGCATGCCGT…AGATTTATGCAGCGGACTGCCTTTCTCCCAAAGTGATAAACCGGACAGTATCATGGACCGGTTTTCCCGGTAATCCGTATTTGCAAGGTTGGTTTCACT; site = the 11-nt target
Description: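 Pooled E. coli target-specificity screen for the IS621 bridge recombinase. Each library plasmid pairs an 11-nt target (CT core) with a bridge RNA whose target-binding loop (9-nt LTG + 4-nt RTG) is reprogrammed; the rest of the 177-nt WT IS621 bridge RNA scaffold is fixed. The plasmid is co-electroporated with a WT donor plasmid; recombinase is induced with 0.1 mM IPTG and recombinants are selected on kanamycin. Recombinant barcodes are sequenced, converted to CPM, averaged over two biological replicates and corrected by the unselected control CPM. Molecule = full bridge RNA written as DNA: LTG = specificity nt 1-9, RTG = reverse complement of specificity nt 8-11, in the WT scaffold.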
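Further: IS621 recombinase and bridge RNA in Escherichia coli cells.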

| Sequence | recombinant barcode read abundance (log10) |
| --- | --- |
| AAGAAGCCTTGGGTTCTAACCTGTTGCCT (site TAGAAGCCTAG) | 0.337 |
| AAGAATACTTGGGTTCTAACCTGTTGCCT (site AAGAATACTAG) | 1.16 |
| AAGAATACTTGGGTTCTAACCTGTTGCCT (site GAGAATACTAC) | 0.011 |
| AAGACATCTTGGGTTCTAACCTGTTGCTT (site AAGACATCTAA) | 1.19 |
| AAGACATCTTGGGTTCTAACCTGTTGCTT (site TAGACATCTAT) | 0.24 |
| AAGAGTCCTTGGGTTCTAACCTGTTGCGT (site AAAAGTCCTAG) | 0.423 |
| AAGAGTCCTTGGGTTCTAACCTGTTGCGT (site AAGAGTCCTAC) | 2.55 |
| AAGATACCTTGGGTTCTAACCTGTTGCTT (site AAGATACCTAA) | 1.29 |
| AAGATACCTTGGGTTCTAACCTGTTGCTT (site AAGATACCTCA) | 0.36 |
| AAGATGTCTTGGGTTCTAACCTGTTGCTG (site AAGATGTCTCA) | 1.74 |
| AAGATGTCTTGGGTTCTAACCTGTTGCTG (site TAGAAGTCTCA) | 0.0558 |
| AAGATTCCTTGGGTTCTAACCTGTTGCCT (site AAGATTCCTAG) | 0.575 |
| AAGATTCCTTGGGTTCTAACCTGTTGCCT (site ACGATTCCTAG) | 0.0379 |
| AAGATTCCTTGGGTTCTAACCTGTTGCCT (site AGGATTCCTAG) | 0.111 |
| AAGATTCCTTGGGTTCTAACCTGTTGCCT (site ATGATTCCTAG) | 0.217 |
| AAGCATGCTTGGGTTCTAACCTGTTGCTA (site AAGCATGCTTA) | 0.883 |

| Sequence | recombinant barcode read abundance (log10) |
| --- | --- |
| AAGCATGCTTGGGTTCTAACCTGTTGCTA (site CTCTTAACTCC) | 0.0074 |
| AAGCCAACTTGGGTTCTAACCTGTTGCCT (site AAGCAAACTAG) | 0.294 |
| AAGCCAACTTGGGTTCTAACCTGTTGCCT (site AAGCCAACTAG) | 1.19 |
| AAGCCAACTTGGGTTCTAACCTGTTGCCT (site AAGCGAACTAG) | 0.181 |
| AAGCCAACTTGGGTTCTAACCTGTTGCCT (site AAGCTAACTAG) | 0.172 |
| AAGCCCTCTTGGGTTCTAACCTGTTGCTT (site AAGACCTCTAA) | 0.144 |
| AAGCCCTCTTGGGTTCTAACCTGTTGCTT (site AAGCCCTCTAA) | 2.53 |
| AAGCCCTCTTGGGTTCTAACCTGTTGCTT (site AAGGCCTCTAA) | 0 |
| AAGCCCTCTTGGGTTCTAACCTGTTGCTT (site AAGTCCTCTAA) | 0.0167 |
| AAGCCTTCTTGGGTTCTAACCTGTTGCTG (site AAGCCTTCTCA) | 1.68 |
| AAGCCTTCTTGGGTTCTAACCTGTTGCTG (site GAGCCTTCTCT) | 0.236 |
| AAGCGAACTTGGGTTCTAACCTGTTGCCT (site AAGCAAACTAG) | 0.274 |
| AAGCGAACTTGGGTTCTAACCTGTTGCCT (site AAGCCAACTAG) | 0.238 |
| AAGCGAACTTGGGTTCTAACCTGTTGCCT (site AAGCGAACTAG) | 2.07 |
| AAGCGAACTTGGGTTCTAACCTGTTGCCT (site AAGCTAACTAG) | 0.319 |
| AAGCTAACTTGGGTTCTAACCTGTTGCCT (site AAGCAAACTAG) | 0.044 |
